Active and inactive are the calls of the source. The rule behind the calls is not given here.

The experiment concerns UPR adaptive arm reporter cells, luciferase luminescence. Nature of the experiment: adaptive unfolded protein response reporter activation – cell-based, luciferase luminescence, dose response (AID 489032).
A word on the EC50: it is the concentration needed to bring the measured effect to its halfway point. `Cc1ccc(C)c(N=Cc2c(O)c3ccccc3oc2=O)c1`: the EC50 is 37.1 µM (inactive). For `CCOc1ccc(-n2nc3ccc(NC(=O)c4ccc5c(c4)OCCO5)cc3n2)cc1`, the EC50 was > 80 µM (inactive). As to `Nc1nc(Nc2ccccc2)nc(NC2CCCCC2)c1[N+](=O)[O-]`, the EC50 was 29.2 µM (inactive). For the compound `O=C(NC(=S)Nc1cc(-c2nc3ccccc3[nH]2)ccc1Cl)c1ccc2c(c1)OCO2`, the half-maximal effective concentration (EC50) was 10.1 µM. With `COc1ccc2nc(NC(=O)c3cccc(-c4cc5ccccc5oc4=O)c3)sc2c1`, the EC50 was > 80 µM (inactive). For `Cc1ccc(NC(=O)c2cc(S(=O)(=O)N(C)C)ccc2N2CCCC2)cc1F`, the EC50 was 37.6 µM (inactive). For the compound `COc1ccc(-c2coc3cc4oc(=O)cc(-c5ccccc5)c4cc23)cc1F`, the EC50 is 43.3 µM (inactive). The result for `CN(C)CCCn1cnc2c(c1=N)C(c1ccccc1)c1ccc3ccccc3c1O2` (stereo unspecified) reads > 80 µM (inactive); that for `COc1ccc(C(=O)Nc2cccc(/C=C/c3nc4ccccc4c(=O)[nH]3)c2)cc1`, > 80 µM (inactive); that for `Brc1ccc(C2=Nn3c(nnc3-c3n[nH]c4c3CCC4)SC2)cc1`, 28.3 µM (inactive). Regarding `O=C(Nc1ccc(O)c2c(=O)cc(-c3cccc(Cl)c3)oc12)c1cccc(Cl)c1`, the EC50 is 20.9 µM (inactive). Turning to `COc1cc(C(=O)Nc2cc(-c3nc4cc(C)ccc4o3)ccc2C)cc(OC)c1OC`, the EC50 was > 80 µM (inactive). The value for `CC(C)CN=C(NS(=O)(=O)c1ccccc1)C(Cl)(Cl)Cl` was > 80 µM (inactive); that for `COc1cc([N+](=O)[O-])cc(/C=N/NC(=O)c2ccc(NC(=O)c3ccc(C)cc3)cc2)c1O` was > 80 µM (inactive).

Take `COc1ccc(OC)c(Nc2nc(NCc3ccco3)nc(N)c2[N+](=O)[O-])c1`: the EC50 was > 80 µM (inactive).

For `CC(C)=CCCC1(C)C=Cc2c(ccc3c2[nH]c2cc(O)c(C)cc23)O1` (stereo unspecified), the EC50 is > 80 µM (inactive). For the compound `O=C(NCCc1ccc(O)c(O)c1)C1COc2ccccc2O1` (stereo unspecified), the EC50 is 66.1 µM (inactive). Consider `Cn1c(-c2ccccc2)c(/C=N/NC(=O)c2ccc(O)cc2)c2ccccc21`, for which the EC50 was > 80 µM (inactive). The value for `Cc1nc(SCC(=O)Nc2ccc(F)cc2)c(C#N)c(C)c1CC(=O)c1ccc(Br)cc1` was > 80 µM (inactive); that for `COc1ccccc1C(=O)NC(=S)NNC(=O)c1sc2ccccc2c1Cl` was > 80 µM (inactive). The result for `CCOC(=O)c1c(NC(=O)Cc2cccs2)sc(C(=O)NC2CCCCC2)c1C` reads > 80 µM (inactive); that for `CCCCNC(=O)c1ccc(Cn2c(=S)[nH]c3c([nH]c4ccc(OC)cc43)c2=O)cc1`, > 80 µM (inactive); that for `CCCc1nc2c(c(=O)c3ccccc3n2C)c(=O)n1C1CCCCCC1`, > 80 µM (inactive). On to `COc1ccc(CNC(=O)/C(C#N)=C/c2cccc(OC)c2OC)cc1`, for which the EC50 is 73 µM (inactive). As for `CCCn1c(Nc2nc3ccccc3n2C)nc2ccccc21`, the EC50 is > 80 µM (inactive). In the case of `COc1cc(NC(=O)c2cccs2)ccc1NC(=O)c1cc2ccccc2o1`, the EC50 was > 80 µM (inactive). The value for `CCN(CC)c1ccc(N=Cc2c(O)n(-c3ccc(Cl)cc3)c(=O)[nH]c2=O)cc1` was 22.7 µM (inactive); that for `CC1=CC(C)(C)N2C(=O)C(=O)c3cc(OC(=O)c4ccco4)cc1c32` was 53.1 µM (inactive); that for `CN(C)c1ccc(/C=C/[N+](=O)[O-])cc1` was > 80 µM (inactive).

On to `C#CCn1c(=NC(=O)c2ccc(Cl)s2)sc2cccc(OC)c21`, for which the EC50 was > 80 µM (inactive).

`COc1ccc(-c2c/c(=N\c3nc(-c4ccccc4)c(C)s3)c3ccccc3o2)cc1O`: the EC50 was > 80 µM (inactive). For `Cn1c(Cl)cnc1C1CC(=O)c2cc(Cl)ccc2O1` (stereo unspecified), the 50% effective concentration (EC50) is 18.9 µM. With `Cc1ccc(Nc2nc(-c3c(C)nc4ccccn34)cs2)cc1`, the EC50 was > 80 µM (inactive). As to `Cc1ccc(NC(=O)c2cc(S(=O)(=O)N(C)C)ccc2N2CCCC2)cc1S(=O)(=O)N(C)C`, the EC50 was 32.1 µM (inactive). With `Cc1ccc(NS(=O)(=O)c2cc([N+](=O)[O-])ccc2N/N=C/c2sc(N3CCOCC3)nc2-c2ccccc2)c(C)c1`, the EC50 is > 80 µM (inactive).

As for `O=C(COc1ccc(/C=N/NC(=O)c2cc3ccccc3o2)cc1Br)Nc1ccccc1`, the EC50 was > 80 µM (inactive).

Take `Cc1ccc2nc(NC(=O)c3ccc(-c4nc5ccccc5s4)s3)sc2c1`: the EC50 is > 80 µM (inactive). `CCOC(=O)c1c(NC(=O)/C=C/C(=O)O)sc(C)c1-c1ccc(C(C)(C)C)cc1`: the EC50 was 25.6 µM (inactive). The value for `CCCCCCCCCCOC(=O)Cn1c(COc2ccc(Cl)cc2)[n+](C)c2ccccc21` was > 80 µM (inactive); that for `NS(=O)(=O)c1ccc(N/N=C/c2cn(-c3ccccc3)nc2-c2ccccc2)c([N+](=O)[O-])c1` was > 80 µM (inactive). Turning to `CCOC(=O)c1c(NC(C)=O)sc2c(OCC(O)CNC(C)(C)C)c(Br)ccc12` (stereo unspecified), the EC50 was > 80 µM (inactive).

Regarding `CC1=CC(C)[C@H](/C=N/n2c(=O)[nH]c3c([nH]c4ccc(Br)cc43)c2=O)C(C)C1` (stereo partly specified), the EC50 is > 80 µM (inactive). `Clc1ccc2c(c1)C(N1CCNCC1)Cc1ccccc1S2` (stereo unspecified): the EC50 was > 80 µM (inactive). For the compound `O=c1[nH]c(-c2ccc(-c3cccc(Cl)c3)o2)nc2ccccc12`, the EC50 was 13.7 µM.

For `CCC1CCc2c(sc3nc(SCC(=O)NCc4ccco4)n(-c4ccccc4)c(=O)c23)C1` (stereo unspecified), the EC50 is > 80 µM (inactive).

`CCC(=O)Nc1ccc(NC(=O)CSc2nc3cc4c(cc3cc2C)CCC4)cc1`: the EC50 was > 80 µM (inactive).

With `O=C(Nc1cccc(-c2nc3cccnc3s2)c1)C1c2ccccc2Oc2ccccc21`, the half-maximal effective concentration (EC50) is 4.67 µM. Regarding `CC1(C)C[C@H](O)[C@]2(CO)[C@H](O)C[C@]3(C)C(=CCC4[C@@]5(C)CC[C@H](O)C(C)(C)C5CC[C@]43C)[C@@H]2C1` (stereo partly specified), the half-maximal effective concentration (EC50) was 18.1 µM. The result for `CCOC(=O)c1sc(NC(=S)NC(=O)c2ccccc2)c(C(=O)OCC)c1C` reads > 80 µM (inactive). The result for `Cc1cc(N2CCN(c3nc(-c4ccc([N+](=O)[O-])cc4)cs3)CC2)c2ccccc2n1` reads > 80 µM (inactive); that for `COc1cc2c(cc1NC(=S)NC(=O)/C=C/c1ccco1)oc1ccccc12`, 21.3 µM (inactive). Take `CCCCCCCCCCOC(=O)Cn1c(COc2ccc(C)cc2)[n+](C)c2ccccc21`: the EC50 was > 80 µM (inactive).

In the case of `COc1ccc(-c2c(-c3cc(OC)cc(OC)c3)n(C)c3ccc(-c4cnc(N)nc4)cc23)cc1`, the EC50 is 36.1 µM (inactive).

As to `COc1ccc(CCn2c(=S)[nH]c3cc(C(=O)NCc4ccco4)ccc3c2=O)cc1OC`, the EC50 is > 80 µM (inactive). In the case of `CC1CCN(Cc2c(C(=O)N/N=C/c3ccc(C(C)C)cc3)nnn2-c2nonc2N)CC1`, the EC50 was > 80 µM (inactive).

Consider `CCCCN1C(=O)C(=O)c2cc(Cl)ccc21`, for which the EC50 is 52.4 µM (inactive).

As for `c1cc(SC2CCCCC2)cc(-c2nc3cnccn3c2NC2CCCCC2)c1`, the EC50 is 28.9 µM (inactive). Turning to `CCC(Sc1nnc2c3ccccc3n(CC)c2n1)C(=O)Nc1sc2c(c1C#N)CCCC2` (stereo unspecified), the 50% effective concentration (EC50) is 16.5 µM.

For `O=C(Nc1ccc(Br)cc1)c1cc(-c2ccncc2)nc2ccccc12`, the EC50 is 11.1 µM. For the compound `O=C(COC(=O)c1ccc2[nH]c3c(c2c1)CCCC3)Nc1ccccc1Cl`, the EC50 was > 80 µM (inactive). For the compound `CCCCNc1c(-c2ccc(-c3ccc(C(C)=O)cc3)c(OC)c2)nc2cc(C)ccn12`, the EC50 is > 80 µM (inactive). Take `O=C(NCC1CC1)c1cccc2c1C(=O)c1ccc(-c3ccc(OC(F)(F)F)cc3)cc1S2(=O)=O`: the EC50 is > 80 µM (inactive).

For `CC(C)=CCCC1(C)C=Cc2c(c(C)cc3c2[nH]c2cc(O)ccc23)O1` (stereo unspecified), the EC50 is > 80 µM (inactive). `Cc1ccc(Cl)cc1N1CCN(Cc2nc3c(c(=O)[nH]c(=O)n3C)n2CCc2ccccc2)CC1`: the EC50 is > 80 µM (inactive). The result for `Cc1cc(C)nc(SCc2ccc(C(=O)N/N=C/c3cccc(O)c3O)cc2)n1` reads > 80 µM (inactive). Consider `Cn1c(/C=C/c2ccc(Cl)cc2Cl)c([N+](=O)[O-])c(=O)n(C)c1=O`, for which the EC50 is > 80 µM (inactive).

`COc1cc(/C=C2\CC(C(C)(C)C)C/C(=C\c3cc(OC)c(OC)c(OC)c3)C2=O)cc(OC)c1OC` (stereo unspecified): the EC50 was 39.3 µM (inactive). Regarding `CCOc1cc(/C=N/NC(N)=S)cc(Br)c1OCc1ccccc1C`, the EC50 was > 80 µM (inactive). The value for `CCc1ccc(OCCNc2cc(N3CCNC(C)C3)ccc2[N+](=O)[O-])cc1` (stereo unspecified) was 18.9 µM. Take `Brc1cc2c(cc1/C=N/Nc1nc3ccccc3s1)OCO2`: the EC50 is 57 µM (inactive).

As for `O=C(c1ccc2c(c1)[nH]c(=S)n1c3ccccc3nc21)N1CCN(c2cccc(Cl)c2)CC1`, the EC50 was > 80 µM (inactive). As to `CC(=O)Nc1ccccc1Sc1ccc2c3c(cccc13)C(=O)N(c1ccc(C)cc1)C2=O`, the EC50 is > 80 µM (inactive). For the compound `COc1cc(NC(=O)c2ccco2)c(C(=O)OCC(=O)c2c[nH]c3ccccc23)cc1OC`, the EC50 was > 80 µM (inactive). `Cc1ccc(Nc2nc(NCCO)c3ccccc3n2)cc1C`: the EC50 is > 80 µM (inactive).

With `O=Cc1cc2ccccc2nc1SCc1ccc(Cl)c(Cl)c1`, the EC50 is 52.3 µM (inactive).

With `C[C@@H]1C[C@H]2[C@@H]3CCC4=CC(=O)C=C[C@]4(C)[C@@]3(Cl)[C@@H](O)C[C@]2(C)[C@@]1(OC(=O)c1ccco1)C(=O)CCl`, the EC50 was > 80 µM (inactive).

Turning to `CCN(CC)c1ccc(N=Cc2c(O)n(Cc3ccccc3)c(=O)[nH]c2=O)cc1`, the EC50 is 62.5 µM (inactive). With `O=CC1=C(c2ccccc2)Oc2ccccc2O1`, the EC50 was > 80 µM (inactive). Consider `N/C(=N\c1nc(CSc2ccccn2)cc(=O)[nH]1)Nc1ccc(Cl)cc1Cl`, for which the EC50 is > 80 µM (inactive). Regarding `COc1ccc2cc1Oc1ccc(cc1)CC1c3c(cc(OC)c4c3Oc3cc5c(cc3O4)CCNC5C2)CCN1C` (stereo unspecified), the EC50 is > 80 µM (inactive). The value for `C=CCOc1ccc(/C=N/N2C(=O)C(CC(=O)Nc3ccc(F)cc3F)SC2=NC)cc1` (stereo unspecified) was > 80 µM (inactive).
